From patent US9902696B2, “1,4-substituted piperidine derivatives” (Cephalon, Inc., priority 2015, dated 2018)

Molecular target: T1, recombinant human baculovirus-expressed GST-tagged FASN (Homo sapiens, UniProt P49327)
T1 construct: GST
Test: FASN enzyme activity assay, fluorescence-based detection of CoA with CPM
Type: biochemical
Conditions: 5 nM FASN, 150 μM NADPH, 10 μM acetyl-CoA, 25 μM malonyl-CoA, 90 minutes incubation; read-out: IC50 data for Compounds of Formulae I-V/V(a): Activity
From the text: FASN Enzyme activity may be determined by detecting coenzyme A (CoA), a product of FASN-catalyzed synthesis of palmitate from acetyl-CoA and malonyl-CoA with NADPH as a cofactor. The assay is fluorescence-based and measures the interaction of free CoA with 7-diethylamino-3-(4′-malemimidylphenyl)-4-methylcoumarin (CPM; Life Technologies, CA) as described in Chung et al (2008). The coumarin derivative CPM contains a thiol-reactive maleimide that becomes fluorescent upon interaction with the sulfhydryl group of CoA.
For the example compounds described herein, the reaction was performed in 384-well low volume non-binding plates (Corning, N.Y.) using recombinant human baculovirus-expressed GST-tagged FASN. The 20-μL assay mixture contained 50 mM HEPES (pH 7.5), 5 nM FASN, 150 μM NADPH (Sigma, St. Louis, Mo.), 10 μM acetyl-CoA (Sigma), 25 μM malonyl-CoA (Sigma) and test compound [diluted in dimethyl sulfoxide (DMSO); 0.5% DMSO final in assay after 100 nL addition]. See, Chung et al.; “A fluorescence-based thiol quantification assay for ultra-high-throughput screening for inhibitors of coenzyme A production,” Assay Drug Dev Tech 2008; 6:361-374.
The reaction was initiated by adding malonyl-CoA, followed by incubation for 90 minutes at […]. A stock solution of the CPM reagent was prepared in DMSO at […] and stored at […]. To detect CoA produced in the FASN reaction, the CPM stock was diluted to […] in 70% ethanol and added at 4 μL/well to the assay plate. The reaction mixture was then incubated for 30 minutes. Fluorescence was measured using the EnVision™ 2102 multi-label plate reader (PerkinElmer, Waltham, Mass.) utilizing a general dual mirror, a 390 nm excitation filter and a 530 nm emission filter. Data analysis was performed using ActivityBase (IDBS, Guilford, UK). IC50 values were calculated by plotting the percent inhibition versus log 10 of the concentration of the compound, and fitting to the nonlinear regression sigmoidal dose-response (variable slope) equation in XLFit (IDBS).

T1 sequence (P49327 whole entry): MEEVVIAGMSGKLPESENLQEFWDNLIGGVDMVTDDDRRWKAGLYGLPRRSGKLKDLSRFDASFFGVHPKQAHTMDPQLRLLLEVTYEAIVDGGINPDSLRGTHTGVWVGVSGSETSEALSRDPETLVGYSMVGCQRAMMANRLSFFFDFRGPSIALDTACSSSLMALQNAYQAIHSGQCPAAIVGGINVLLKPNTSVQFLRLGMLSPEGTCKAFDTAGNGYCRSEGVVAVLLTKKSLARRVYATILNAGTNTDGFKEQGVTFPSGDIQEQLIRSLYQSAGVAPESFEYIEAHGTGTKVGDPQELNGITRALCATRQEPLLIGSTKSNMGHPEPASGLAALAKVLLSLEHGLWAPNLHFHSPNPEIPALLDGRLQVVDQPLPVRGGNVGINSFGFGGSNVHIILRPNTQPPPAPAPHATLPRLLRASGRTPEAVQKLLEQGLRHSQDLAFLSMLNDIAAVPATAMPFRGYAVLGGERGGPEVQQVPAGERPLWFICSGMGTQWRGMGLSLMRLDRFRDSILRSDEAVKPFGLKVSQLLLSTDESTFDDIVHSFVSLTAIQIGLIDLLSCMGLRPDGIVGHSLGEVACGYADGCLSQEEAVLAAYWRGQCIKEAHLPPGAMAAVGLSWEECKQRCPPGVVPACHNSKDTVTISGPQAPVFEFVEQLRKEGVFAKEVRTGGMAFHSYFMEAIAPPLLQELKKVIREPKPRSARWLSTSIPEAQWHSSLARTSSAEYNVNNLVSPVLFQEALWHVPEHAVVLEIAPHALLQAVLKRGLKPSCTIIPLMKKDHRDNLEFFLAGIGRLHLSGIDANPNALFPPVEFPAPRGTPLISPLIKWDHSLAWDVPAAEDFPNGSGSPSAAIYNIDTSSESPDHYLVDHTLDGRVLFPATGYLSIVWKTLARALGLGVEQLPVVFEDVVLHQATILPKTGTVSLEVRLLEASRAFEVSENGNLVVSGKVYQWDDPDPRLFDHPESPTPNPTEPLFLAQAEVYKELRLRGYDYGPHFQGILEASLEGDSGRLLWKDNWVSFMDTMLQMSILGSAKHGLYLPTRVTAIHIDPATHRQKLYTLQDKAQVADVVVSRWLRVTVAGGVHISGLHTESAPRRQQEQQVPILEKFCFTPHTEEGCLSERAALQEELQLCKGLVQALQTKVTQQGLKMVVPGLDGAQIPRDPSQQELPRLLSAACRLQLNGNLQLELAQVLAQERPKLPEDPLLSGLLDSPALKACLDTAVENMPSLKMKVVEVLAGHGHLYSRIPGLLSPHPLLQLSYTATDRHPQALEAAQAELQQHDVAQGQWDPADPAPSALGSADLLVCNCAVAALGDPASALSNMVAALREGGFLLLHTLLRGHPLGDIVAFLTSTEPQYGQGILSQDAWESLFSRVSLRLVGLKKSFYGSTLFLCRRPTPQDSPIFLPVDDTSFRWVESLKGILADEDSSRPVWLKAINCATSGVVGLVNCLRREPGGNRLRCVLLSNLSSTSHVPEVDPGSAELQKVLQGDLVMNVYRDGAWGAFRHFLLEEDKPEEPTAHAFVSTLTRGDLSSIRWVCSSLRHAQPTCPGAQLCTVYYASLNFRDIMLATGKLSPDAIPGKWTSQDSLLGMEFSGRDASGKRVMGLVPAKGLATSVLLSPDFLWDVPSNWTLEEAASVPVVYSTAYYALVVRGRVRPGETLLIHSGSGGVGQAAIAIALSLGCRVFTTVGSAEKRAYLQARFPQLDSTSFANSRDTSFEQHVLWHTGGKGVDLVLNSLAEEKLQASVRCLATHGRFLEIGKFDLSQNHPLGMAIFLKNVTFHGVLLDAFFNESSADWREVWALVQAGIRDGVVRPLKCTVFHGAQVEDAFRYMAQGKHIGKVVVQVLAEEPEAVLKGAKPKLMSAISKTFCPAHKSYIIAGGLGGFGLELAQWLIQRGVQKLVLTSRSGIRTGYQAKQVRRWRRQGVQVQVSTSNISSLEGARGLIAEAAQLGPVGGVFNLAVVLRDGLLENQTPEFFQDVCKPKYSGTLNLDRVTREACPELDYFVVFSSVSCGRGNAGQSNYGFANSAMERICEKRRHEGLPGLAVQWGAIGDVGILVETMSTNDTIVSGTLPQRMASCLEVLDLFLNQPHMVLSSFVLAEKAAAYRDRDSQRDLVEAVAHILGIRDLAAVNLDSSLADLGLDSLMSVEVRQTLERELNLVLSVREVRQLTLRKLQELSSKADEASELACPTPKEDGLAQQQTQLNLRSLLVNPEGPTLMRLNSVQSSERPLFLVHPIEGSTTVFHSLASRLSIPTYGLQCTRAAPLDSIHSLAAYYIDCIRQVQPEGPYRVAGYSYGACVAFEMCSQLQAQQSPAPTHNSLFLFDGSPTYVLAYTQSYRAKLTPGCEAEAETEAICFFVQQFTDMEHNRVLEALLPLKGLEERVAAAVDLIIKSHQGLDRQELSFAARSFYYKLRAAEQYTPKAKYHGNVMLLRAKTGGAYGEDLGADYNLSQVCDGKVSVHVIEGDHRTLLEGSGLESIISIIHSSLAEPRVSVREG

Row | Compound | IC50
1 | COc1cc2cc(-c3ccc(OC4CCN(C(=O)C5CC5)CC4)cc3)cnc2cc1OC [Example 56, Cyclopropyl-{4-[4-(6,7-dimethoxyquinolin-3-yl)-phenoxy]-piperidin-1-yl}-methanone] | 1000 to 10000 nM
2 | CCC(=O)N1CCC(Oc2ccc(-c3cnc4c(OC)cccc4c3)cc2)CC1 [Example 57, 1-{4-[4-(8-Methoxyquinolin-3-yl)-phenoxy]-piperidin-1-yl}-propan-1-one] | 100 to 999 nM
3 | COc1cccc2cc(-c3ccc(OC4CCN(C(=O)C5CC5)CC4)cc3)cnc12 [Example 58, Cyclopropyl-{4-[4-(8-methoxyquinolin-3-yl)-phenoxy]-piperidin-1-yl}-methanone] | 100 to 999 nM
4 | O=C(C1CC1)N1CCC(Oc2ccc(-c3ccc4cccnc4c3Cl)cc2)CC1 [Example 59, {4-[4-(8-Chloroquinolin-7-yl)-phenoxy]-piperidin-1-yl}-cyclopropyl-methanone] | 1 to 99 nM
5 | CCC(=O)N1CCC(Oc2ccc(-c3cnc4ccccc4c3C)cc2)CC1 [Example 60] | 1 to 99 nM
6 | Cc1c(-c2ccc(OC3CCN(C(=O)C4CC4)CC3)cc2)cnc2ccccc12 [Example 61] | 1 to 99 nM
7 | Cc1c(-c2ccc(OC3CCN(C(=O)C4CCC4)CC3)cc2)cnc2ccccc12 [Example 62, Cyclobutyl-{4-[4-(4-methylquinolin-3-yl)-phenoxy]-piperidin-1-yl}-methanone] | 1 to 99 nM
8 | CCC(=O)N1CCC(Oc2ccc(-c3cnc4cc(C)ccc4c3)cc2)CC1 [Example 63, 1-{4-[4-(7-Methylquinolin-3-yl)-phenoxy]-piperidin-1-yl}-propan-1-one] | 100 to 999 nM
9 | Cc1ccc2cc(-c3ccc(OC4CCN(C(=O)C5CC5)CC4)cc3)cnc2c1 [Example 64, Cyclopropyl-{4-[4-(7-methylquinolin-3-yl)-phenoxy]-piperidin-1-yl}-methanone] | 100 to 999 nM
10 | Cc1c(-c2ccc(OC3CCN(C(=O)[C@H]4CCCO4)CC3)cc2)cnc2ccccc12 [Example 65, {4-[4-(4-Methylquinolin-3-yl)-phenoxy]-piperidin-1-yl}-(R)-tetrahydro-furan-2-yl-methanone] | 1 to 99 nM
11 | CCC(=O)N1CCC(Oc2ccc(-c3cnc4ccccc4n3)cc2)CC1 [Example 66, 1-[4-(4-Quinoxalin-2-yl-phenoxy)-piperidin-1-yl]-propan-1-one] | 100 to 999 nM
12 | O=C(C1CC1)N1CCC(Oc2ccc(-c3cnc4ccccc4n3)cc2)CC1 [Example 67, Cyclopropyl-[4-(4-quinoxalin-2-yl-phenoxy)-piperidin-1-yl]-methanone] | 100 to 999 nM
13 | O=C([C@H]1CCCO1)N1CCC(Oc2ccc(-c3cnc4ccccc4n3)cc2)CC1 [Example 68, [4-(4-Quinoxalin-2-yl-phenoxy)-piperidin-1-yl]-(R)-tetrahydrofuran-2-yl-methanone] | 1 to 99 nM
14 | Cc1c(-c2ccc(OC3CCN(C(=O)[C@H]4CCCO4)CC3)cc2)ccc2cccnc12 [Example 69, {4-[4-(8-Methylquinolin-7-yl)-phenoxy]-piperidin-1-yl}-(R)-tetrahydro-furan-2-yl-methanone] | 1 to 99 nM
15 | Cc1c(-c2ccc(OC3CCN(C(=O)[C@@H]4CCCO4)CC3)cc2)ccc2cccnc12 [Example 70, {4-[4-(8-Methylquinolin-7-yl)-phenoxy]-piperidin-1-yl}-(S)-tetrahydro-furan-2-yl-methanone] | 1 to 99 nM
16 | O=C([C@H]1CCCO1)N1CCC(Oc2ccc(-c3cnc4ccccc4c3Cl)cc2)CC1 [Example 71, {4-[4-(4-Chloroquinolin-3-yl)-phenoxy]-piperidin-1-yl}-(R)-tetrahydro-furan-2-yl-methanone] | 1 to 99 nM
17 | CC(=O)C(=O)N1CCC(Oc2ccc(-c3cnc4ccccc4c3C)cc2)CC1 [Example 72, 1-{4-[4-(4-Methylquinolin-3-yl)-phenoxy]-piperidin-1-yl}-propane-1,2-dione] | 1 to 99 nM
18 | O=C(N1CCC(Oc2ccc(-c3cnc4ccccc4c3)cc2)CC1)N1CCCO1 [Example 73, Isoxazolidin-2-yl-[4-(4-quinolin-3-yl-phenoxy)-piperidin-1-yl]-methanone] | 1 to 99 nM
19 | O=C(N1CCC(Oc2ccc(-c3cc4ccccc4cn3)cc2)CC1)N1CCCO1 [Example 74, [4-(4-Isoquinolin-3-yl-phenoxy)-piperidin-1-yl]-isoxazolidin-2-yl-methanone] | 1 to 99 nM
20 | Cc1c(-c2ccc(OC3CCN(C(=O)N4CCCO4)CC3)cc2)ccc2cccnc12 [Example 75, Isoxazolidin-2-yl-{4-[4-(8-methyl-quinolin-7-yl)-phenoxy]-piperidin-1-yl}-methanone] | 1 to 99 nM

The next lines start with the values.

Row | IC50 | Compound
21 | 1 to 99 nM | O=C(N1CCC(Oc2ccc(-c3cnc4ccccc4c3Cl)cc2)CC1)N1CCCO1 [Example 76, {4-[4-(4-Chloroquinolin-3-yl)-phenoxy]-piperidin-1-yl}-isoxazolidin-2-yl-methanone]
22 | 1 to 99 nM | O=C(N1CCC(Oc2ccc(-c3ccc4cccnc4c3Cl)cc2)CC1)N1CCCO1 [Example 77, {4-[4-(8-Chloroquinolin-7-yl)-phenoxy]-piperidin-1-yl}-isoxazolidin-2-yl-methanone]
23 | 1 to 99 nM | Cc1c(-c2ccc(OC3CCN(C(=O)N4CCCO4)CC3)cc2)cnc2ccccc12 [Example 78, Isoxazolidin-2-yl-{4-[4-(4-methylquinolin-3-yl)-phenoxy]-piperidin-1-yl}-methanone]
24 | 1 to 99 nM | COc1c(-c2ccc(OC3CCN(C(=O)N4CCCO4)CC3)cc2)ccc2cccnc12 [Example 79, Isoxazolidin-2-yl-{4-[4-(8-methoxyquinolin-7-yl)-phenoxy]-piperidin-1-yl}-methanone]
25 | 1 to 99 nM | Cc1ccc2cc(-c3ccc(OC4CCN(C(=O)N5CCCO5)CC4)cc3)cnc2c1 [Example 80, Isoxazolidin-2-yl-{4-[4-(7-methylquinolin-3-yl)-phenoxy]-piperidin-1-yl}-methanone]
26 | 1 to 99 nM | O=C(N1CCC(Oc2ccc(-c3cnc4ccccc4n3)cc2)CC1)N1CCCO1 [Example 81, Isoxazolidin-2-yl-[4-(4-quinoxalin-2-yl-phenoxy)-piperidin-1-yl]-methanone]
27 | 1 to 99 nM | CONC(=O)N1CCC(Oc2ccc(-c3cnc4ccccc4c3C)cc2)CC1 [Example 82, 4-[4-(4-Methylquinolin-3-yl)-phenoxy]-piperidine-1-carboxylic acid methoxyamide]
28 | 1 to 99 nM | CON(C)C(=O)N1CCC(Oc2ccc(-c3cnc4ccccc4c3C)cc2)CC1 [Example 83, 4-[4-(4-Methylquinolin-3-yl)-phenoxy]-piperidine-1-carboxylic acid methoxymethyl-amide]
29 | 1 to 99 nM | CCNC(=O)N1CCC(Oc2ccc(-c3cnc4ccccc4c3C)cc2)CC1 [Example 84, 4-[4-(4-Methylquinolin-3-yl)-phenoxy]-piperidine-1-carboxylic acid ethylamide]
30 | 100 to 999 nM | CNC(=O)N1CCC(Oc2ccc(-c3ccc4cccnc4c3OC)cc2)CC1 [Example 85, 4-[4-(8-Methoxyquinolin-7-yl)-phenoxy]-piperidine-1-carboxylic acid methylamide]
31 | 1 to 99 nM | CCNC(=O)N1CCC(Oc2ccc(-c3ccc4cccnc4c3OC)cc2)CC1 [Example 86, 4-[4-(8-Methoxyquinolin-7-yl)-phenoxy]-piperidine-1-carboxylic acid ethylamide]
32 | 1000 to 10000 nM | Cc1c(-c2ccc(OC3CCN(C(=O)NO)CC3)cc2)cnc2ccccc12 [Example 87, 4-[4-(4-Methylquinolin-3-yl)-phenoxy]-piperidine-1-carboxylic acid hydroxyamide]
